Columns and labels:
[1] = tested on: in vitro granuloma model (PBMCs challenged with microparticles); assay: Pro- and anti-apoptotic protein levels in in vitro granuloma model (Example 3); type: cell-based, human; conditions: 1 μM MIA-602, 48 h
Protocol: In vitro granuloma was developed by challenging PBMC with microparticles as previously described (Zhang et al., Sci Rep 2020; 10: 7277). (Zhang et al., Sci Rep 2020; 10: 7277), PBMCs were lysed in lysis buffer (Cell Signaling Technology, Beverly, MA) with protease inhibitor cocktail (Cell Signaling Technology, Beverly, MA) and sonicated three times for 2 seconds each with at least 1-min rest on ice between each 2-s pulse. Samples were centrifuged at 10,000×g for 5 min at 4° C. and the supernatant was collected. Protein concentration was determined by BCA protein assay kit from Cell Signaling Technology. The methodology is further described in .Zhang et al., Sci Rep 2020; 10: 7277. Thirty micrograms of total protein were mixed in a reducing sample buffer and used for mitochondrial apoptosis assay per the kit instruction. The assay was performed using a Bio-Rad kit (171-WAR3CK). The ability of a peptide of the disclosure, MIA-602, to influence respiration and apoptosis in granuloma cells was examined. The specific processes of apoptosis and mitochondrial dynamics in granuloma have not been fully elucidated. To test if MIA-602 had pro- or anti-apoptotic effects, the protein levels of pro-(active caspase-3) and anti-apoptotic factors (survivin, Bcl-xL/Bak dimer, and Mcl-1/Bak dimer) were measured in an in vitro granuloma model. […] Media were removed 48 h after treatment.

[2] = tested on: mouse model of pulmonary sarcoidosis; assay: Mouse model of pulmonary sarcoidosis, lung inflammation grading (Example 1); type: in vivo, C57B1/6 mice; conditions: sarcoidosis mice, treated two weeks, vs saline-treated sarcoidosis group; MIA-602 5 μg/day intraperitoneal; FIGS. 1A-E
Protocol: Granulomatous reaction in the mouse lung was developed as previously described (Zhang et al., Front Immunol 2019; 10: 2888).
The detail of the methodology used for confocal microscopy is discussed in Zhang et al., Front Immunol 2019; 10: 2888. To summarize, mice were killed on day 14, and the left lungs were harvested. Lungs were filled with 10% buffered formalin and fixed in formalin for at least 72 h before IHC staining. H&E staining was used to determine inflammatory pathology.
Lung inflammation was scored using the three fields with the highest infiltrate's intensity at 100× power magnification as previously described (Zhang et al., Front Immunol 2019; 10: 2888). The area of inflammation was measured and averaged for the three examined high-power fields.
A mouse model of pulmonary sarcoidosis was established in C57B1/6 mice by administering microparticles intratracheally. The tongue was pulled out with a small spatula and microparticles were inserted into the trachea using a 20 G angio-catheter tube at the time of laryngeal opening and advanced to main bronchus until reach to resistant. After tube placement, microparticles were administered: a first dose of 5×10^8 CFU of M. abscessus in 50 μL with three subsequent doses of 2×10^8 CFU of M. abscessus in 20 μL. A control group received only 20 μL PBS intratracheally. Mice receiving microparticles developed noncaseating granuloma in the lung, as observed use H&E staining and immunohistochemistry staining for CD68 macrophage marker, CD4 marker, and PD-L1.
The first sarcoidosis group received MIA-602 (5 μg/day), administered via intraperitoneal injection. The second sarcoidosis group received α-melanocyte stimulating hormone (α-MSH), the third sarcoidosis group received steroid treatment (methyl-prednisone, the current first line treatment for sarcoidosis), and the fourth group received only saline. Mice were sacrificed after two weeks, and inflammation in lung samples was graded.

[3] = tested on: granuloma (PBMC challenged with microparticles); assay: Cytokine production in in vitro granuloma from PBMC of sarcoidosis subjects, multiplex ELISA (Example 2); type: cell-based, human; conditions: 1 microM MIA-602, 48 h, media
Protocol: In vitro granuloma was developed by challenging PBMC with microparticles as previously described (Zhang et al., Sci Rep 2020; 10: 7277).
To measure cytokines in media, supernatant aliquot samples were analyzed, thawed, and spun at 12,000 rpm for 10 min to separate the particulate material at the bottom. Fifty μl of undiluted media was plated from each sample onto a 96-well V-bottom plate (source plate) by manual pipetting according to predefined maps. The aliquots were wrapped in parafilm and kept in a humid chamber at 4° C. during the entire process, but not longer than 72 hr. Growth factors and their receptor's capture antibodies were reconstituted and diluted per manufacturer specification and 50 μl plated into each well of respective 96-well high-binding half-well plates, which were then sealed and incubated overnight at 4° C. The cytokine levels were measured using a procartaplex human th1/th2 cytokine panel 11 plex from Invitrogen, (epx110-10810-901).
Granuloma and PBMC were collected from five sarcoidosis subjects. The samples were grouped as control (not challenged), granuloma group challenged with a 10:1 treatment with microparticles but left untreated, challenged granuloma group treated with 1 microM MIA-602 in vitro, and challenged granuloma group treated with methyl prednisolone in vitro. Media were removed 48 h after of treatments. Cytokines were measured using an multiplex ELISA instrument.

[PhAc-Ada^0-Tyr^1, D-Arg^2, Fpa5^6, Ala^8, Har^9, Tyr(Me)^10, His^11, Orn^12, Abu^15, His^20, Orn^21, Nle^27, D-Arg^28, Har^29]hGH-RH(1-29)NH2 [MIA-602]
survivin levels ([1]; FIG. 3A): no statistical difference between groups | active caspase 3 level ([1]; FIG. 3D): further increased | level of Mcl-1/Bak dimer ([1]; reduced in untreated granuloma, FIG. 3B): restored | BclxL/Bak Dimer levels ([1]; vs granuloma treated with saline, FIG. 3C): increased | inflammation in lung samples (inflammation score) [2]: lower inflammation scores | cytokine production of CCL2 [3]: significantly reduced | cytokine production of CCL5 [3]: significantly reduced | cytokine production of CXCL9 [3]: significantly reduced | cytokine production of IFNα [3]: significantly reduced | cytokine production of IL2 [3]: significantly reduced | cytokine production of IL7 [3]: significantly reduced | cytokine production of IL10 [3]: significantly reduced | cytokine production of IL12 [3]: significantly reduced | cytokine production of IL15 [3]: significantly reduced | cytokine production of IL17A [3]: significantly reduced

From patent publication US20250332223A1, “GHRH ANTAGONISTS FOR USE IN A METHOD OF TREATING SARCOIDOSIS” (University of Miami, priority 2019, published 2025)
